Measured values taken from US12171756B2, “NLRP3 modulators” (Innate Tumor Immunity, Inc., priority 2017, dated 2024).
Where two headings read alike, the source gives them in different places.

Key:
human TLR8 = biological target: T1, human TLR8 (Homo sapiens, UniProt Q9NR97); assay: In vitro human TLR8 binding reporter assay (HEK-Blue, NF-kB/AP1-inducible SEAP); type: cell-based; details: HEK-Blue human TLR8 SEAP reporter cells; activity range classes; read-out: TLR8 Agonist EC50
T1 construct: host or cells: human HEK-Blue cells (HEK293-derived) co-expressing TLR8 and an NF-kB/AP1-inducible SEAP reporter
T1 sequence (Q9NR97 27-1041): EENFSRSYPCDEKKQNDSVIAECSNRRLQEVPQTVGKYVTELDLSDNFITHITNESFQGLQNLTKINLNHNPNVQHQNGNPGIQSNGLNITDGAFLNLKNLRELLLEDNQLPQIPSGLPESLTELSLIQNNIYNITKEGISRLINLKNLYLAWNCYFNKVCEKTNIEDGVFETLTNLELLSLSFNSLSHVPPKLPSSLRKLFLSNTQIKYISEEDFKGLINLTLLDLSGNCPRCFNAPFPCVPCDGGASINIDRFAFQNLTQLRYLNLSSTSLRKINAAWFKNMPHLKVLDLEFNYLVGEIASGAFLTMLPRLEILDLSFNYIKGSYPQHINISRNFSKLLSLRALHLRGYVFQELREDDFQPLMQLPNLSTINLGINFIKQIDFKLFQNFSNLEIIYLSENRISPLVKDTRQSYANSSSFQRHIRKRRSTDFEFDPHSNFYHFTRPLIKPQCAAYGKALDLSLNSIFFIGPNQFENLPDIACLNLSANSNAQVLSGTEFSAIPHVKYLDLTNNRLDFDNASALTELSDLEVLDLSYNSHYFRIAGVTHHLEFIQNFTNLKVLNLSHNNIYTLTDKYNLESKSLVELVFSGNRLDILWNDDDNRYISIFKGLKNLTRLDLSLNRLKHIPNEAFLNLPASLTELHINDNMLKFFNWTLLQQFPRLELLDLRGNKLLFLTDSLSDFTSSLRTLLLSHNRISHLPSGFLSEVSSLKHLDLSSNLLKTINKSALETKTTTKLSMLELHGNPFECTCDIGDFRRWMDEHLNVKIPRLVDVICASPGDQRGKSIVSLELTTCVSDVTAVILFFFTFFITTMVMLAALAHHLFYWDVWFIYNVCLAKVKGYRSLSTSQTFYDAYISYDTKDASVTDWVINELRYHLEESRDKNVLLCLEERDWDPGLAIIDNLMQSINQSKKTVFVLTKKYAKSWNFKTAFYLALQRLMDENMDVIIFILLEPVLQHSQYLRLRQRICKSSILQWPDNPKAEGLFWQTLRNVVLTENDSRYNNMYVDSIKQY
Procedure: (§1) In Vitro Human TLR7 and TLR8 Binding Reporter Assays
(§2) Logarithmically-growing human HEK-Blue cells co-expressing a TLR7 or TLR8 gene and a NF-kB/AP1-inducible SEAP (secreted embryonic alkaline phosphatase; Invivogen, San Diego, CA) reporter gene are added to individual wells of a 384-well plate (15,000 cells per 20 μL per well) and maintained for 24 h at 37° C., 5% CO2. Test compounds or DMSO are distributed to separate wells the next day using acoustic liquid handling technology (100 nL per well) and cells are subsequently incubated for 18 h at 37° C., 5% CO2. Cellular SEAP production is measured using an Envision plate reader instrument thirty minutes after adding freshly-made Quanti-Blue reagent (prepared by following manufacturer instructions; Invivogen, San Diego, CA) to the HEK-Blue TLR Nf-kB-SEAP cell reactions. All EC50 values (half-maximal effective concentration) are determined using proprietary data analysis software. Normalized EC50 value=absolute value determined by setting 100% Ymax using a reference standard RLU (relative light unit) values from cells treated with 50 μM of the reference standard.

human TLR7 = biological target: T2, human TLR7 (Homo sapiens, UniProt Q9NYK1); assay: In vitro human TLR7 binding reporter assay (HEK-Blue, NF-kB/AP1-inducible SEAP); type: cell-based; details: HEK-Blue human TLR7 SEAP reporter cells; activity range classes; read-out: TLR7 Agonist EC50
T2 construct: host or cells: human HEK-Blue cells (HEK293-derived) co-expressing TLR7 and an NF-kB/AP1-inducible SEAP reporter
T2 sequence (Q9NYK1 27-1049): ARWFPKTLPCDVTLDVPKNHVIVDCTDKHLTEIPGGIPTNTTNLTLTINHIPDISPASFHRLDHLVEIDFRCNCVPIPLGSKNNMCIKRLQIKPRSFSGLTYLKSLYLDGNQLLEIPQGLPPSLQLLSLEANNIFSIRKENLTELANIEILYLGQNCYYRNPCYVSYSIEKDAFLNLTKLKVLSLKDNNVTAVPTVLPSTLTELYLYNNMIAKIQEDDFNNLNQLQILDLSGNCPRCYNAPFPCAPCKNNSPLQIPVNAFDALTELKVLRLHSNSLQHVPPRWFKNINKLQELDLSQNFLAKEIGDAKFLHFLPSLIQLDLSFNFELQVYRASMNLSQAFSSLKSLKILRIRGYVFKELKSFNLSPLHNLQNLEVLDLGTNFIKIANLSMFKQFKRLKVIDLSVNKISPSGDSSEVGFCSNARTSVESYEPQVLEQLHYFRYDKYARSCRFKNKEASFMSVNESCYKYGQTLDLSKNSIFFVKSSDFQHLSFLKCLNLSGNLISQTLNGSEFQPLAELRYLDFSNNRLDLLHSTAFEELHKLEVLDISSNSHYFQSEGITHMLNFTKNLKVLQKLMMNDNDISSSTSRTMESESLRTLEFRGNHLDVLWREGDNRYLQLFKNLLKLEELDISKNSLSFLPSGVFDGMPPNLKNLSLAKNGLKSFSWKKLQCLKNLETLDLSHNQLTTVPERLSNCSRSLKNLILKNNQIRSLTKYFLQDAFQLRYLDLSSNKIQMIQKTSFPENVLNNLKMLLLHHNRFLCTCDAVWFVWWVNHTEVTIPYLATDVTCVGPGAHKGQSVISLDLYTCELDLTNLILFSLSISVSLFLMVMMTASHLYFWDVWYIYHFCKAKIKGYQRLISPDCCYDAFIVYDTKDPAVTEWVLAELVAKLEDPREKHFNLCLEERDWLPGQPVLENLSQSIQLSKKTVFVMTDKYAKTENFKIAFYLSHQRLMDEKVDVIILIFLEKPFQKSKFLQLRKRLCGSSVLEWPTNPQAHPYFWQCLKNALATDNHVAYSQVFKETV
Procedure: as §1, §2

[1] = tested on: IL-1β production in PMA-differentiated THP-1 cells; assay: Measurement of IL-1β production in PMA-differentiated THP-1 cells (ELISA, 4 hours); type: cell-based, human; details: assayed using one or more of the described procedures, read-out: NLRP3 hIL1B IC50
Procedure: Measurement of IL-1β Production in PMA-Differentiated THP-1 Cells THP-1 cells were purchased from the American Type Culture Collection and sub-cultured according to instructions from the supplier. Prior to experiments, cells were cultured in RPMI 1640 containing 10% heat inactivated FBS, penicillin (100 units/ml) and streptomycin (100 μg/ml), and maintained in log phase prior to experimental setup. Prior to the experiment THP-1 were treated with PMA (Phorbol 12-myristate 13-acetate) (10 μg/ml) for 24 hours. The day of the experiment the media was removed and attaching cells were treated with trypsin for 2 minutes, cells were then collected, washed with PBS (phosphate buffer saline), spin down, resuspended in 2% heat inactivated FBS with RPMI at a concentration of 1×10^6 cells/ml, and 100 μl was plated in a 96 well plate. Compounds were dissolved in dimethyl sulfoxide (DMSO) and added to the culture medium to achieve desired concentration (e.g. 100, 30, 10, 3, 1, 0.3 or 0.1 μM). Cells were incubated with compounds for 4 hours. Cell free supernatant was collected and the production of IL-1β was evaluated by ELISA. A vehicle only control was run concurrently with each experiment. Final DMSO concentration was 1%.

[2] = Homo sapiens, THP-1, human IL-1β production

| Molecule | EC50 (human TLR8) [µM] | EC50 (human TLR7) [µM] | IC50 ([1]; human IL-1β production) [µM] | IC50 [1, 2] [µM] |
| --- | --- | --- | --- | --- |
| 3-[4-amino-7-(1H-pyrazol-3-yl)-[1,3]oxazolo[4,5-c]quinolin-2-yl]propan-1-ol [Compound 107] | > 100 | > 100 | 0.34 | – |
| Nc1cc(N[C@H]2CCCC[C@H]2O)c2ccc(-c3ccn[nH]3)cc2n1 (racemic) [Compound 157] | > 100 | > 100 | 0.73 | – |
| Nc1cc(O[C@H]2COC[C@H]2O)c2ccc(-c3ccn[nH]3)cc2n1 (racemic) [Compound 197] | > 100 | > 100 | – | 2.86 |
| Nc1cc(NC2CCNC2)c2ccc(-c3ccn[nH]3)cc2n1 (stereo in doubt) [Compound 321, (S)-7-(1H-pyrazol-3-yl)-N4-(pyrrolidin-3-yl)quinoline-2,4-diamine] | > 100 | > 100 | 11.6 | – |
| Nc1nc2cc(-c3cc[nH]n3)ccc2cc1CCCCOCc1ccccc1 [Compound 105, 3-[4-(benzyloxy)butyl]-7-(1H-pyrazol-3-yl)quinolin-2-amine] | > 100 | > 100 | – | 2.98 |
| Nc1nc2cc(-c3cc[nH]n3)ccc2cc1CCCCCOCc1ccccc1 [Compound 106, 3-[5-(benzyloxy)pentyl]-7-(1H-pyrazol-3-yl)quinolin-2-amine] | > 100 | > 100 | – | 3.82 |
| CC(=O)NCCCCc1cc2ccc(-c3cc[nH]n3)cc2nc1N [Compound 109] | > 100 | > 100 | – | 4.33 |
| Nc1nc2cc(-c3ccn[nH]3)ccc2cc1CNCC1CCCO1 (stereo not drawn) [Compound 117] | – | – | – | 5.8 |
| Nc1nc2cc(-c3ccn[nH]3)ccc2cc1C1(CO)CC1 [Compound 120] | – | – | – | 4.24 |
| Nc1nc2cc(-c3ccn[nH]3)ccc2cc1CCN1CCOCC1 [Compound 121] | > 100 | – | – | 3.03 |
| Nc1nc2cc(-c3ccn[nH]3)ccc2cc1-c1cnc[nH]1 [Compound 123, 3-(1H-imidazol-5-yl)-7-(1H-pyrazol-5-yl)quinolin-2-amine] | – | – | – | 3.01 |
| Cc1n[nH]c(-c2cc3ccc(-c4ccn[nH]4)cc3nc2N)n1 [Compound 126] | – | – | – | 3.53 |
| Nc1cc(OCCCN2CCCC2=O)c2ccc(-c3ccn[nH]3)cc2n1 [Compound 181] | > 100 | – | – | 9.92 |
| CN1CCN(CCCCOc2cc(N)nc3cc(-c4ccn[nH]4)ccc23)CC1 [Compound 184] | > 100 | – | – | 7.27 |

Second part, the molecule after the results:

| EC50 (human TLR8) [µM] | EC50 (human TLR7) [µM] | IC50 ([1]; human IL-1β production) [µM] | IC50 [1, 2] [µM] | Molecule |
| --- | --- | --- | --- | --- |
| > 100 | > 100 | – | 0.79 | Nc1nc2cc(-c3cc[nH]n3)ccc2cc1CCCCCO [Compound 101, 5-[2-amino-7-(1H-pyrazol-3-yl)quinolin-3-yl]pentan-1-ol] |
| > 100 | > 100 | – | 1.38 | Nc1nc2cc(-c3cc[nH]n3)ccc2cc1CCCCO [Compound 102, 4-[2-amino-7-(1H-pyrazol-3-yl)quinolin-3-yl]butan-1-ol] |
| > 100 | > 100 | – | 1.6 | Nc1nc2cc(-c3cc[nH]n3)ccc2cc1CCCO [Compound 103, 3-[2-amino-7-(1H-pyrazol-3-yl)quinolin-3-yl]propan-1-ol] |
| > 100 | > 100 | – | 0.69 | Nc1nc2cc(-c3cc[nH]n3)ccc2cc1CCCOCc1ccccc1 [Compound 104, 3-[3-(benzyloxy)propyl]-7-(1H-pyrazol-3-yl)quinolin-2-amine] |
| – | – | – | 1.15 | Nc1cc(CCCOCc2ccccc2)c2ccc(-c3cc[nH]n3)cc2n1 [Compound 108, 4-[3-(benzyloxy)propyl]-7-(1H-pyrazol-3-yl)quinolin-2-amine] |
| > 100 | > 100 | – | 1.64 | CCNCCCc1cc2ccc(-c3cc[nH]n3)cc2nc1N [Compound 110, 3-[3-(ethylamino)propyl]-7-(1H-pyrazol-3-yl)quinolin-2-amine] |
| > 100 | > 100 | – | 2.46 | CCN(CCCCc1cc2ccc(-c3cc[nH]n3)cc2nc1N)C(C)=O [Compound 111] |
| – | – | – | 1.87 | CN1CCN(CCc2cc3ccc(-c4ccn[nH]4)cc3nc2N)CC1 [Compound 122] |
| – | – | – | 1.98 | Nc1nc2cc(-c3ccn[nH]3)ccc2cc1-c1cccc(CO)n1 [Compound 125] |
| > 100 | – | – | 2.76 | CN1CCN(c2cc(N)nc3cc(-c4ccn[nH]4)ccc23)CC1 [Compound 130] |
| > 100 | – | – | 2.4 | CN(C)CCCNc1cc(N)nc2cc(-c3ccn[nH]3)ccc12 [Compound 168, N4-(3-(dimethylamino)propyl)-7-(1H-pyrazol-5-yl)quinoline-2,4-diamine] |
| > 100 | – | – | 0.38 | Nc1cc(NCCCO)c2ccc(-c3ccn[nH]3)cc2n1 [Compound 171] |
| – | > 100 | – | 0.76 | Nc1cc(NCCC2CCOCC2)c2ccc(-n3cccn3)cc2n1 [Compound 346, 7-(1H-pyrazol-1-yl)-N4-(2-(tetrahydro-2H-pyran-4-yl)ethyl)quinoline-2,4-diamine] |
